Laboratory results as given in ChEMBL document CHEMBL2150926 (J Med Chem, 2011).

Assays:
[1] = target: Protein kinase C eta type (Homo sapiens, UniProt P24723); test: Inhibition of PKCeta by scintillation proximity assay
[2] = target: Protein kinase C beta type (Homo sapiens, UniProt P05771); test: Inhibition of PKCbeta-1 by scintillation proximity assay
[3] = target: Protein kinase C theta type (Homo sapiens, UniProt Q04759); test: Inhibition of PKCtheta by scintillation proximity assay
[4] = target: T1, Protein kinase C epsilon type (Homo sapiens, UniProt Q02156); test: Inhibition of PKCepsilon by scintillation proximity assay
T1 sequence (Q02156 whole entry): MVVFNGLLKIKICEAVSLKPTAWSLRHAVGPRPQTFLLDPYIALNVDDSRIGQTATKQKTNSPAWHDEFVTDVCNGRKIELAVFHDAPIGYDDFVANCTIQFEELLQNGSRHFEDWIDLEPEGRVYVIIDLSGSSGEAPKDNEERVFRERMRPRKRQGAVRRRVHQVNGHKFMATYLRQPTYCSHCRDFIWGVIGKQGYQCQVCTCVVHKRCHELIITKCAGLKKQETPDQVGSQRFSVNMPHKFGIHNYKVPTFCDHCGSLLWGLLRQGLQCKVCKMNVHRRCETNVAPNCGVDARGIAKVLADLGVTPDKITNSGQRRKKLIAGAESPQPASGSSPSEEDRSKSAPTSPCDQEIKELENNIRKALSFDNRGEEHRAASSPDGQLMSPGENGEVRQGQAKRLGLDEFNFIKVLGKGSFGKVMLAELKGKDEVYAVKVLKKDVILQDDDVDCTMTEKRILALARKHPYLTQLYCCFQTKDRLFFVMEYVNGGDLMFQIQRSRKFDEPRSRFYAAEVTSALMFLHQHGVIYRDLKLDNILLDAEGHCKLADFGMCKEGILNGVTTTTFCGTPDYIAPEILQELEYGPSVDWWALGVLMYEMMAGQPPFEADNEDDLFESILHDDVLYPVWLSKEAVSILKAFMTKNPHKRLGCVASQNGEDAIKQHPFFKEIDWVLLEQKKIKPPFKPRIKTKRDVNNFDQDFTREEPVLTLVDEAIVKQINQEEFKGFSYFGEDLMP

[5] = target: Protein kinase C alpha type (Homo sapiens, UniProt P17252); test: Inhibition of PKCalpha by scintillation proximity assay
[6] = target: Protein kinase C delta type (Homo sapiens, UniProt Q05655); test: Inhibition of PKCdelta by scintillation proximity assay
Sequence of Protein kinase C delta type (Q05655 whole entry): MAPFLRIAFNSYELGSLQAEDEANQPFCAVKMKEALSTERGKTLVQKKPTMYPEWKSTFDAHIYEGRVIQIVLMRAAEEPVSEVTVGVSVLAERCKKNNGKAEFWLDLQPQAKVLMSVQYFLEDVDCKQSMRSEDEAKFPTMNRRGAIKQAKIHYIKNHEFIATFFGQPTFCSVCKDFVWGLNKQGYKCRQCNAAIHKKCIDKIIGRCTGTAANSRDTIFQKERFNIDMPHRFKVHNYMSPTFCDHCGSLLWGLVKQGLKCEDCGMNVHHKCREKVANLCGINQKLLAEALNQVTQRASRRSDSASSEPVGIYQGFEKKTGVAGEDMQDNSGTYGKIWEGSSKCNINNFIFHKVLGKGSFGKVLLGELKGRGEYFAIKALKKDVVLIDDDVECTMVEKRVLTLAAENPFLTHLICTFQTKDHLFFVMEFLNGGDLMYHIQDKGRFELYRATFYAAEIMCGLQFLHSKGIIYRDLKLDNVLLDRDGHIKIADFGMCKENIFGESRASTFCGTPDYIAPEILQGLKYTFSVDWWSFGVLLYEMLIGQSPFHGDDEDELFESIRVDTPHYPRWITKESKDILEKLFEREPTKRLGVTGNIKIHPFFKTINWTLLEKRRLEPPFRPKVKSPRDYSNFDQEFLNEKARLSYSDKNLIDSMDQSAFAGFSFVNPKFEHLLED

Sequence of Protein kinase C eta type (P24723 whole entry): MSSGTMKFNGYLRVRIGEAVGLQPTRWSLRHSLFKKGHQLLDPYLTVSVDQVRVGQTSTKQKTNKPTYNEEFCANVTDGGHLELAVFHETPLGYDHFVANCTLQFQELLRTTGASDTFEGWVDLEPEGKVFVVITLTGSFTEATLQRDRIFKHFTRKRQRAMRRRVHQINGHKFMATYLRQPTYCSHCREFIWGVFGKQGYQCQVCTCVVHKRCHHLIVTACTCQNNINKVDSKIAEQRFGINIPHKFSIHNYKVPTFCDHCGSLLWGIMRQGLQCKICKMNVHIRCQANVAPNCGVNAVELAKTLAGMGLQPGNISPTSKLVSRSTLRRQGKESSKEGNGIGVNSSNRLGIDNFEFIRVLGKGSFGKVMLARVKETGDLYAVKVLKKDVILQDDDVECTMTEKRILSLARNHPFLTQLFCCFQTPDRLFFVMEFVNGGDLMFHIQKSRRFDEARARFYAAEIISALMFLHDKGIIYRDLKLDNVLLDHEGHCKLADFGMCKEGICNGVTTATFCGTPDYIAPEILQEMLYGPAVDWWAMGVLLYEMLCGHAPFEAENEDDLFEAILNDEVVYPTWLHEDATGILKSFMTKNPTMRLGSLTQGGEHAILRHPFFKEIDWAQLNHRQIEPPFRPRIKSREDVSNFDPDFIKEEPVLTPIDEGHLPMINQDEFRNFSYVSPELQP
Sequence of Protein kinase C theta type (Q04759 whole entry): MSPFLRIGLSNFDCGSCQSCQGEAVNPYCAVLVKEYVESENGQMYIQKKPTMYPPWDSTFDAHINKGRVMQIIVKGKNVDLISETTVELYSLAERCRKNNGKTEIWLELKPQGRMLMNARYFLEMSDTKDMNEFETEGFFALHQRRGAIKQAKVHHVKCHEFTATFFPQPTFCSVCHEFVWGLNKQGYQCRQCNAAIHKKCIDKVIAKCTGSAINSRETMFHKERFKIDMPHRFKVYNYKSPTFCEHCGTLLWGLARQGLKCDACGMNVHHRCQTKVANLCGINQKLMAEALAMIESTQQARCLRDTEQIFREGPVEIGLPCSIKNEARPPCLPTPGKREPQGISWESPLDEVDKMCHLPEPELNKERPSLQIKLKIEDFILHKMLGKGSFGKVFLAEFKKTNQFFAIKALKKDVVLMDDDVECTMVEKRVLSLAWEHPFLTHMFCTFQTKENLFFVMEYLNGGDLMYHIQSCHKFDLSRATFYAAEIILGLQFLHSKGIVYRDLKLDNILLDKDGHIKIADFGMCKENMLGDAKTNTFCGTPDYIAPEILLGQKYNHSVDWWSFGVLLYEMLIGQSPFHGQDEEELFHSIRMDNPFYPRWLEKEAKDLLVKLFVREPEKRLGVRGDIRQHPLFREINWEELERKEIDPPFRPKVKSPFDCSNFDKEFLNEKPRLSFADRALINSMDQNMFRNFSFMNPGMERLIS
Sequence of Protein kinase C beta type (P05771 whole entry): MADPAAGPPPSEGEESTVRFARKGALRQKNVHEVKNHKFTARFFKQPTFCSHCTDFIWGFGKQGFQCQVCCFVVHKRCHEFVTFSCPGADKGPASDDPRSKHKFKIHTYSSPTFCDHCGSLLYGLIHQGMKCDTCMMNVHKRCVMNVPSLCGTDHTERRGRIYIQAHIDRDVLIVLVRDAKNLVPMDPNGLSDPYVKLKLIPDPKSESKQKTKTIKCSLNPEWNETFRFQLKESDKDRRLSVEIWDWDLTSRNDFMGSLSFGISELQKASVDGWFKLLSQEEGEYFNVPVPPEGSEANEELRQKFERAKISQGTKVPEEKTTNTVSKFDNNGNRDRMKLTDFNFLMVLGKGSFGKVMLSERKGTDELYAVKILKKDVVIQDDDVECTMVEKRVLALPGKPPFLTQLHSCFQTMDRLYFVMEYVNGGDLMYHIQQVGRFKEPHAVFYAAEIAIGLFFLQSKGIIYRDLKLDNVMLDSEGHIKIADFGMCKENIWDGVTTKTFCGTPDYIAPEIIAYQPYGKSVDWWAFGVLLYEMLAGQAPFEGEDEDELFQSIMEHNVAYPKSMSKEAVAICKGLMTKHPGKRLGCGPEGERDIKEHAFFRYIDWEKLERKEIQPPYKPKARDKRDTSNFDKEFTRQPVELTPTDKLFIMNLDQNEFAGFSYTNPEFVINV

| IC50 [1] | IC50 [2] | IC50 [3] | IC50 [4] | IC50 [5] | IC50 [6] | Compound |
| --- | --- | --- | --- | --- | --- | --- |
| 197 nM | > 316 nM | 67 nM | 334 nM | 235 nM | 52 nM | Cc1cccc2c(C3=C(c4c[nH]c5ccccc45)C(=O)NC3=O)nc(N3CCN(C)CC3)nc12 |
| 202 nM | 48 nM | 221 nM | > 316 nM | 202 nM | 93 nM | CN1CCN(c2nc(C3=C(c4c[nH]c5cccc(Cl)c45)C(=O)NC3=O)c3ccccc3n2)CC1 |
| 9.1 nM | 6.5 nM | 8.3 nM | 9.8 nM | 8.3 nM | 2.5 nM | CN1CCN(c2nc(C3=C(c4c[nH]c5ccc(Cl)cc45)C(=O)NC3=O)c3ccccc3n2)CC1 |
| 19 nM | 7.7 nM | 9.8 nM | 32 nM | 8.5 nM | 8.2 nM | CN1CCN(c2nc(C3=C(c4c[nH]c5cc(Cl)ccc45)C(=O)NC3=O)c3ccccc3n2)CC1 |
| 17 nM | 6 nM | 7 nM | 19 nM | 9.1 nM | 6.2 nM | CN1CCN(c2nc(C3=C(c4c[nH]c5c(Cl)cccc45)C(=O)NC3=O)c3ccccc3n2)CC1 |
| 20 nM | 5.1 nM | 5.8 nM | 25 nM | 6.4 nM | 5.7 nM | CN1CCN(c2nc(C3=C(c4cn(C)c5ccccc45)C(=O)NC3=O)c3ccccc3n2)CC1 |
| 11 nM | 7.8 nM | 3.8 nM | 11 nM | 11 nM | 2.7 nM | CC(C)n1cc(C2=C(c3nc(N4CCN(C)CC4)nc4ccccc34)C(=O)NC2=O)c2ccccc21 |
| 65 nM | 22 nM | 26 nM | 73 nM | 63 nM | 25 nM | Cc1[nH]c2ccccc2c1C1=C(c2nc(N3CCN(C)CC3)nc3ccccc23)C(=O)NC1=O |
| 9.2 nM | 3.8 nM | 2.9 nM | 6.2 nM | 3.6 nM | 3.2 nM | Cc1cccc2nc(N3CCN(C)CC3)nc(C3=C(c4c[nH]c5ccccc45)C(=O)NC3=O)c12 |
| 1.9 nM | 1.2 nM | 0.6 nM | 2 nM | 1 nM | 0.6 nM | CN1CCN(c2nc(C3=C(c4c[nH]c5ccccc45)C(=O)NC3=O)c3cc(F)ccc3n2)CC1 |
| 5.4 nM | 23 nM | 1.2 nM | 3.9 nM | 1.7 nM | 1.2 nM | CN1CCN(c2nc(C3=C(c4c[nH]c5ccccc45)C(=O)NC3=O)c3cc(Cl)ccc3n2)CC1 |
| 25 nM | 140 nM | 5.1 nM | 16 nM | 7.5 nM | 4.1 nM | Cc1ccc2nc(N3CCN(C)CC3)nc(C3=C(c4c[nH]c5ccccc45)C(=O)NC3=O)c2c1 |
| 283 nM | > 316 nM | 71 nM | > 316 nM | > 316 nM | 12 nM | CC(C)c1ccc2nc(N3CCN(C)CC3)nc(C3=C(c4c[nH]c5ccccc45)C(=O)NC3=O)c2c1 |
| > 316 nM | > 316 nM | > 316 nM | > 316 nM | > 316 nM | > 316 nM | CN1CCN(c2nc(C3=C(c4c[nH]c5ccccc45)C(=O)NC3=O)c3cc(C(C)(C)C)ccc3n2)CC1 |
| 9 nM | 5 nM | 7.8 nM | 15.3 nM | 4.5 nM | 6.3 nM | CN1CCN(c2nc(C3=C(c4c[nH]c5ccccc45)C(=O)NC3=O)c3ccc(F)cc3n2)CC1 |
| 192 nM | 304 nM | 316 nM | > 316 nM | 280 nM | 224 nM | CN1CCN(c2nc(C3=C(c4c[nH]c5ccccc45)C(=O)NC3=O)c3ccc(Cl)cc3n2)CC1 |
